The text below walks through data of paper PMC5592152 (Bioorganic & medicinal chemistry letters, 2017).

Some targets named below: α7 nAChR (Homo sapiens, UniProt P36544); α3β4 nAChR (Homo sapiens, UniProt P30926+P32297); α4β2 nAChR (Homo sapiens, UniProt P17787+P43681).
Common to all, as to experiment: electrophysiological experiments, voltage clamp of oocytes
Holding throughout (assay type): cell-based

Chain of α3β4 nAChR (P32297 32-505): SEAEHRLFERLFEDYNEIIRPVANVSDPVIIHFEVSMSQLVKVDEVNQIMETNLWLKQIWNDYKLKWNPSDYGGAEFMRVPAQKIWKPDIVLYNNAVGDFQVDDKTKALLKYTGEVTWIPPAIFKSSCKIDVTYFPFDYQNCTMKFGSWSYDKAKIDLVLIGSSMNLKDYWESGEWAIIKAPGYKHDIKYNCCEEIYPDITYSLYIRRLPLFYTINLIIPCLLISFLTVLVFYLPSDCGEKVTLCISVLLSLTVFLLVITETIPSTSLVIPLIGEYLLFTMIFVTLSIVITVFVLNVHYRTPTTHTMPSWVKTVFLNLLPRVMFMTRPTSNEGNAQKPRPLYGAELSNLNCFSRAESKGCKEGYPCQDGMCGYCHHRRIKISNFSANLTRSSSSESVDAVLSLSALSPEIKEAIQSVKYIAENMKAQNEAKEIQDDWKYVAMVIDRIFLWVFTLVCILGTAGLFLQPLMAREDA
Chain of α3β4 nAChR (P30926 22-498): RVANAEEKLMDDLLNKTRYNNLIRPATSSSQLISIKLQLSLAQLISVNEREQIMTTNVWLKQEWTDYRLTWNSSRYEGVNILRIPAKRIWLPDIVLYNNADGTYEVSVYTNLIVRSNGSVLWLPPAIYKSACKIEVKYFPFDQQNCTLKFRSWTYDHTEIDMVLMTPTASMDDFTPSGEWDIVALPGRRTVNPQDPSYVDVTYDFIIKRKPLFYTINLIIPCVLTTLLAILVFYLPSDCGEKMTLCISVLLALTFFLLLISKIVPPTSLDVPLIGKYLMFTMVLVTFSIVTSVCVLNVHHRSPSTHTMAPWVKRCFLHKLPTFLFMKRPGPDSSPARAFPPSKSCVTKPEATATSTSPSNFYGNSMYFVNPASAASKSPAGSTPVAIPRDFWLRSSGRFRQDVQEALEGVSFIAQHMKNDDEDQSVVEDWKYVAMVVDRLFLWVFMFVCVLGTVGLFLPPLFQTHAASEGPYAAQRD
Chain of α7 nAChR (P36544 23-502): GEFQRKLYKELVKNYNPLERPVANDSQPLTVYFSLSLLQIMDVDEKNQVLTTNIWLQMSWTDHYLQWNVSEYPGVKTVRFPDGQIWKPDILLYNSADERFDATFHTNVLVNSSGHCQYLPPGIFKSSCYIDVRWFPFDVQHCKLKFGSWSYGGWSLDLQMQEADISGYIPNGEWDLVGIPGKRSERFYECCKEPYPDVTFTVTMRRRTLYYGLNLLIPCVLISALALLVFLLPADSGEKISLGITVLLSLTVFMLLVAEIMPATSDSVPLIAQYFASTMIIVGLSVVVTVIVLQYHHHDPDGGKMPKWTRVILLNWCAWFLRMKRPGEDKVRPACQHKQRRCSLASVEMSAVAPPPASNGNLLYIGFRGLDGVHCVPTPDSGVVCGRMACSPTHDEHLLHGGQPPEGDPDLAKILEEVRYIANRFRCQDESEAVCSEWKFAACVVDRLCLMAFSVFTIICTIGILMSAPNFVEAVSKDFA
Chain of α4β2 nAChR (P43681 29-627 limits assumed): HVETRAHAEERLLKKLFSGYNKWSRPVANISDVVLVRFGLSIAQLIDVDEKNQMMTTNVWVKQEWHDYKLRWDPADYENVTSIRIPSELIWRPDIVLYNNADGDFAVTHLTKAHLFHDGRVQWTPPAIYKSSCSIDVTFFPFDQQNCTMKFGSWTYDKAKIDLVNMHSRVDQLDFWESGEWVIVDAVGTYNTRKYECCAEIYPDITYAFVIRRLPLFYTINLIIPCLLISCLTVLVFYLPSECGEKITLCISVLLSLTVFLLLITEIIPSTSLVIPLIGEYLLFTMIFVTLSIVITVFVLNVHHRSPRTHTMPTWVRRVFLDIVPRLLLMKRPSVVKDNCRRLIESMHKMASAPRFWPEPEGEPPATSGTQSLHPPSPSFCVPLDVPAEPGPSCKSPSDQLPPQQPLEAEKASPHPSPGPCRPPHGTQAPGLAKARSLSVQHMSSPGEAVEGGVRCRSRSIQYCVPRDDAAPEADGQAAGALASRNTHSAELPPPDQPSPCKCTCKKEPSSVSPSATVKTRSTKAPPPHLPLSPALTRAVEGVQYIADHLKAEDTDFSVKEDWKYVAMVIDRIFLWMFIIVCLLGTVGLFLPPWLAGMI
Chain of α4β2 nAChR (P17787 26-502): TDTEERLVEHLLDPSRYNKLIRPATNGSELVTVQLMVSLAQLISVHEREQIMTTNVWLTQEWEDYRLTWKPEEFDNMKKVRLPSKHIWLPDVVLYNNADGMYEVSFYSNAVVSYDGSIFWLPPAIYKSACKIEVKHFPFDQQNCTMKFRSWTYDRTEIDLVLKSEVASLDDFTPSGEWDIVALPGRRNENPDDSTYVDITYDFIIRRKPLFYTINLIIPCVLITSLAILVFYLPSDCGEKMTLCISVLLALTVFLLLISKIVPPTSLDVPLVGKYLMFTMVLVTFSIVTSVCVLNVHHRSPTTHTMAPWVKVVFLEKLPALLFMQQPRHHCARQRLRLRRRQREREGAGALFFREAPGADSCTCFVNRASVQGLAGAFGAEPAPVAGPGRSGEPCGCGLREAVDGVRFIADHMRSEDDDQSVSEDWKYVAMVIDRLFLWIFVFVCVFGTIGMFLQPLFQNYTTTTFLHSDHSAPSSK

For the compound `CN1CCC=C(c2cnc(F)c(-c3ccccc3)c2)C1` [Compound 3a], the agonist activity entry on α7 nAChR (60 μM for α7, normalized to control ACh response) is “no significant agonist activity”; at α3β4 nAChR (100 μM for α3β4, normalized to control ACh response), “no significant agonist activity”; on α4β2 nAChR (30 μM for α4β2, normalized to control ACh response) it was “no significant agonist activity”. For the same compound, the antagonist activity result is given as “no significant antagonist activity” at α7 nAChR (compound at 100 μM, with ACh 60 μM); “significantly antagonized” at α3β4 nAChR (compound at 100 μM, with ACh 100 μM); “no significant antagonist activity” on α4β2 nAChR (compound at 100 μM, with ACh 30 μM).
